Experimental data taken from article PMC8623398, “Investigation of the Mechanisms of Cytotoxic Activity of 1,3-Disubstituted Thiourea Derivatives” (Pharmaceuticals, 2021).
Values joined by “and” are separate entries in the source; they are usually repeats but may differ in a detail not shown here. Equal entries are not always repeated.

Assays:
[1] = tested on: SW480 cells; test: Trypan blue assay, SW480; format: cell-based, human; conditions: SW480, 72 h; for Cell Number × 10^5 / Viability (%): compound at IC50 concentration
Protocol: In order to estimate the tumor and normal cell population density and their viability after treatment with compounds 1–3, 8, and 9, the trypan blue dye exclusion assay was performed. The live cell number of all cancerous cells incubated for 72 h with the studied thioureas was considerably lower in comparison with the controls (Table 2; Figure S1A). The highest reduction in cell amount was denoted for both colon SW480 and SW620 cells treated with the dichlorophenyl derivative 2, and it accounted for 93%. […] Similarly, a noticeable decline in both colon cancer cell populations was observed after treatment with the ortho-substituted compound 8. The number of live cells equaled 12% and 18%, respectively, as compared to controls. This thiourea also led to a reduction of PC3 cells of 38%, and leukemia K-562 cell lines of 27%. The number of SW620 and PC3 cells decreased by 72% and 63% in the presence of para-substituted compound 9. However, the reducing influence of this thiourea on the number of other cancerous cells was at the level of 21–32%. […] A significant effect on the other studied pathological cells was also noticed and accounted for 32–46%. Furthermore, the derivative 3 reduced the amount of live cancer cells by 32–59%, of which its decreasing impact on colon cancer cells was the greatest.
The live cell count was assessed by the trypan blue exclusion dye assay using an automated cell counter (CountessTM Invitrogen, Waltham, MA, USA). Untreated cells were used as the control.

[2] = tested on: PC3 cells; test: MTT assay, PC3; format: cell-based; conditions: Homo sapiens, PC-3, 72 h, 50% growth inhibition
Protocol: (§1) As a first step in assessing their cytotoxic properties, all thioureas of the series were assayed against four human carcinoma cell lines, such as SW480 (primary colon cancer), SW620 (metastatic colon cancer), PC3 (metastatic prostate cancer), and K-562 (chronic myelogenous leukemia), as well as against the normal cell line HaCaT (immortalized human keratinocytes). Table 1 lists the compound concentrations that produced 50% of growth inhibition (IC50, μM), generated by the MTT method, in comparison with two commonly used chemotherapeutic agents, doxorubicin and cisplatin.
(§2) The human primary (SW480), metastatic (SW620) colon cancer, metastatic prostate cancer (PC3), chronic myelogenous leukemia (K-562), and human immortal keratinocyte (HaCaT) cell lines were purchased from the American Type Culture Collection (ATCC, Rockville, MD, USA). The cells were cultured in medium according to protocols (MEM for SW480 and SW620, RPMI 1640 for PC3 and K-562, and DMEM for HaCaT cells), supplemented with 10% FBS, penicillin (100 U/mL) and streptomycin (100 μg/mL), and cultured in a 37 °C/5% CO2 humidified incubator. The cells were cultured until appropriate confluence was achieved (80–90%). Next, they were harvested by treatment with 0.25% trypsin (Gibco Life Technologies, Waltham, MA, USA) excluding the non-adherent K-562 cell line and used for studies.
(§3) Cells without the studied compounds in medium were used as a control.
(§4) The cell viability was assessed by determination of MTT salt [3-(4,5-dimethylthiazol-2-yl)-2,5-diphenyltetrazoliumbromide] conversion by mitochondrial dehydrogenase. The MTT assay was performed as previously described. Alternatively, non-adherent leukemic cells were centrifuged in a microplate centrifuge (400× g, 5 min) during the collection stages. Experiments were repeated three times. Cell viability was presented as a percent of MTT reduction in the treated cells versus the control cells. The number of viable cells cultured without the studied compounds was assumed as 100%. A decreased relative MTT level indicated decreased cell viability. Thiourea compounds with the highest cytotoxic potential assessed by MTT determination (with the lowest IC50) were chosen for subsequent assessments of cytotoxicity mechanisms.

[3] = tested on: SW620 cells; test: Annexin V-FITC/PI flow cytometry, SW620; format: cell-based, human; conditions: SW620, 72 h, IC50 concentration
Protocol: (§5) To estimate the mechanism of anticancer activity of the selected compounds 1–3, 8, and 9, their effect on both early and late apoptosis was evaluated by flow cytometry analysis. […] Additionally, visible late apoptosis-inducing properties in these cell lines were denoted for the compound 9 (47% ± 3.0%), which was twice as strong towards the colon tumor cells mentioned above. The apoptotic properties of analogs 3 and 8 in K-562 cells varied from 30% ± 1.6% to 33% ± 2.3%. […] Whereas the apoptosis-generating influence of derivatives 2 and 3 on normal keratinocytes was higher (29% and 23%), their selectivity measured by MTT methods is favorable. The obtained results are in agreement with the IC50 values assigned to pathological cancer cell lines. The cells were cultured and harvested under the conditions described in Section 3.2.1. […] The effect of these compounds on the process of early and late apoptosis and necrosis was determined as described previously by dual staining with Annexin V:FITC and propidium iodide, according to the manufacturer’s protocol (Becton Dickinson). The cells that were Annexin V:FITC positive and PI negative were identified as early apoptotic, and Annexin V:FITC and PI positive as late apoptotic or necrotic.

[4] = tested on: SW480 cells; test: Annexin V-FITC/PI flow cytometry, SW480; format: cell-based, human; conditions: SW480, 72 h, IC50 concentration
Protocol: as §5

[5] = tested on: SW620 cells; test: MTT assay, SW620; format: cell-based, human; conditions: Homo sapiens, SW-620, 72 h, 50% growth inhibition
Protocol: as §1, §2, §3, §4

[6] = tested on: SW480, SW620, PC3, K-562 cells; test: MTT assay, summary over cancer cell lines; format: cell-based; conditions: Homo sapiens, 72 h, depending on the tumor line, read-out: IC50 (range or bound over cancer cell lines)
Protocol: as §1, §3, §4

[7] = tested on: K-562 cells; test: Annexin V-FITC/PI flow cytometry, K-562; format: cell-based, human; conditions: K-562, 72 h, IC50 concentration
Protocol: as §5

Compound	number of live cells as compared to controls ([1]; IC50 concentration)	Cell Number × 10^5 [1]	Viability (%) [1]	IC50 [2]	cells in late apoptosis [3]	cells in late apoptosis [4]	IC50 [5]	IC50 [6]	cells in late apoptosis [7]	reduction in live cell number ([1]; IC50 concentration, vs control)
FC(F)(F)c1ccc(NC(=S)Nc2cccc(C(F)(F)F)c2)cc1 [Compound 8, 1-[3-(trifluoromethyl)phenyl]-3-[4-(trifluoromethyl)phenyl]thiourea]	12%	0.4 ± 0.15 × 10^5	90 ± 2.30%	6.9 ± 1.64 µM	≤ 26%	97% ± 1.2%	7.6 ± 1.75 µM			
FC(F)(F)c1cccc(NC(=S)Nc2ccc(Cl)cc2)c1 [Compound 9, 1-(4-chlorophenyl)-3-[3-(trifluoromethyl)phenyl]thiourea]		2.5 ± 0.12 × 10^5	72 ± 2.25%	22.6 ± 1.25 µM	≤ 26%	24% ± 0.4%	6.7 ± 1.74 µM	≤ 10 µM	47% ± 3.0%	
FC(F)(F)c1cccc(NC(=S)Nc2ccc(Cl)c(Cl)c2)c1 [Compound 2, 1-(3,4-dichlorophenyl)-3-[3-(trifluoromethyl)phenyl]thiourea]		0.3 ± 0.35 × 10^5	45 ± 2.40%	31.7 ± 2.07 µM	99% ± 0.5%	95% ± 1.5%	1.5 ± 0.72 µM		73% and 73% ± 2.0%	93%
Fc1ccc(NC(=S)Nc2cccc(C(F)(F)F)c2)cc1Cl [Compound 1, 1-(3-chloro-4-fluorophenyl)-3-[3-(trifluoromethyl)phenyl]thiourea]		2.0 ± 0.30 × 10^5	69 ± 1.30%	53.6 ± 2.94 µM	57% ± 1.2%	60% ± 1.8%	9.4 ± 1.85 µM	≤ 10 µM	74% ± 3.8%	
FC(F)(F)c1cccc(NC(S)=Nc2ccc(Cl)cc2Cl)c1 [Compound 3, 1-(2,4-dichlorophenyl)-3-[3-(trifluoromethyl)phenyl]thiourea]		1.5 ± 0.10 × 10^5	90 ± 1.30%	13.7 ± 7.04 µM	≤ 26%		5.8 ± 0.76 µM	≤ 10 µM		
